Reference: patent US11370788B2, “Substituted imidazo[4,5-c]quinoline compounds with an N-1 branched group” (3M INNOVATIVE PROPERTIES COMPANY, priority 2018, dated 2022)

System: Human peripheral blood mononuclear cells (PBMC)
Test: Cytokine Induction in Human Cells (PBMC)
Format: cell-based
Settings: 21-24 hours culture, lowest concentration giving cytokine at least 2× negative control; for MEC to Induce Cytokine IFN-alpha: ELISA; for MEC to Induce Cytokine IFN-gamma / MEC to Induce Cytokine TNF-alpha: multiplex bead assay
Experimental: Whole blood was obtained from healthy human donors and collected by venipuncture into vacutainer tubes or syringes containing EDTA. Human peripheral blood mononuclear cells (PBMC) were purified from the whole blood by density gradient centrifugation. Histopaque 1077 (15 mL, Sigma, St. Louis, Mo.) was transferred to 6×50 mL sterile polypropylene conical tubes. The Histopaque was overlayed with 15-25 mL of blood diluted 1:2 in Hank's Balanced Salts Solution (HBSS) (Gibco, Life Technology, Grand Island, N.Y.). The tubes were then centrifuged at 1370 rpm for 30 minutes at 20° C., with no brake (400λg, GH 3.8A Rotor).
The interface (buffy coat) containing the PBMC was collected and placed in a new sterile 50 mL conical polypropylene centrifuge tube. The PBMC were mixed with an equal volume of HBSS (about 20 mL from the interface and about 20 mL of HBSS), and then centrifuged at 1090 rpm, 10 minutes, 20° C., with brake (270λg, GH 3.8A Rotor). After completing centrifugation, the cells were resuspended in 2 to 3 mL ACK Red blood cell lysis buffer (ammonium chloride potassium solution, Gibco, Life Technology) and incubated for 2-5 minutes at 20° C. Next, HBSS (40 mL) was added to the cells, and the sample was centrifuged at 270×g for 10 minutes at 20° C. The supernatant was decanted, and the cell pellet was resuspended in 5 mL AIM V Medium (Gibco, Life Technology). Cell aggregates and debris were removed by filtering the cell solution through a BD Falcon 70 micron nylon cell strainer (BD Biosciences, San Jose, Calif.).
The number of viable cells was determined by counting with a Miltenyi FACS instrument (Miltenyi Biotec Inc., San Diego, Calif.) or by using a hemacytometer. For determining cell viability with a hemacytometer, the cells were diluted 1/10 in 0.4% trypan blue and HBSS (specifically, 50 microliter of trypan blue+40 microliter of HBSS+10 microliter of cell solution were added to a microfuge tube and mixed). Ten microliters of the diluted cells were then applied to the hemacytometer, and the number of viable PBMC were determined by microscopy.
The PBMC sample was then resuspended in 96-well plates at a concentration of 8×10^5 cells/well in 0.1 mL of AIM-V medium. Each compound was solubilized in DMSO to create a 3 mM stock solution. The stock solution was then further diluted with AIM-V medium to prepare the serial dilutions. The diluted compound (100 microliters) was then transferred to the PBMCs to achieve final compound concentrations of 30, 10, 3.3, 1.1, 0.37, 0.12, 0.04, 0.01 micromolar. The plates also had both positive and negative controls. The negative control wells contained only AIM-V medium with no example compound. The positive control wells contained imiquimod serially diluted to concentrations of 30, 10, 3.3, 1.1, 0.37, 0.12, 0.04, 0.01 micromolar. The plates were then cultured at 37° C./5% CO2 for 21-24 hours. Cell-free supernatants were harvested by centrifuging the 96-well plates at 2100 rpm, 23° C. for 10 minutes. Approximately 160 microliter of the supernatant was then stored in a NUNC 96-well plate, covered with the compression cap and stored at −80° C. until the cytokine analysis was done.
IFN-alpha cytokine levels (picograms/mL) were measured by ELISA (human IFN-alpha, pan specific, Mabtech, Cincinnati, Ohio). IFN-gamma and TNF-alpha levels (picograms/mL) were measured by multiplex bead assay (magnetic beads, R & D Systems, Minneapolis, Minn.) according to the manufacturer's instructions.
Specifically, the minimum effective concentration of each compound (micromolar) was determined as the lowest concentration of the compound that induced a measured cytokine response at a level ([…]) that was at least 2× greater than that observed with the negative control wells.

## CCCCCCOc1ccc(C[C@@H](COCC)n2cnc3c(N)nc4ccccc4c32)cc1 [Example 4, 1-[(1S)-1-(ethoxymethyl)-2-(4-hexoxyphenyl)ethyl]imidazo[4,5-c]quinolin-4-amine]
  MEC to Induce Cytokine IFN-alpha: ≤0.01 µM
  MEC to Induce Cytokine IFN-gamma: ≤0.01 µM
  MEC to Induce Cytokine TNF-alpha: ≤0.01 µM

## CCCCOc1ccc(C[C@@H](COCC)n2cnc3c(N)nc4ccccc4c32)cc1 [Example 3, 1-[(1S)-1-[(4-butoxyphenyl)methyl]-2-ethoxy-ethyl]imidazo[4,5-c]quinolin-4-amine]
  MEC to Induce Cytokine IFN-alpha: ≤0.01 µM
  MEC to Induce Cytokine IFN-gamma: ≤0.01 µM
  MEC to Induce Cytokine TNF-alpha: ≤0.01 µM

## CCCCC(CC)COc1ccc(C[C@@H](COCC)n2cnc3c(N)nc4ccccc4c32)cc1 (stereo partly drawn) [Example 5, 1-[(1 S)-1-(ethoxymethyl)-2-[4-(2-ethylhexoxy)phenyl]ethyl]imidazo[4,5-c]quinolin-4-amine]
  MEC to Induce Cytokine IFN-alpha: 0.37 µM
  MEC to Induce Cytokine IFN-gamma: 0.04 µM
  MEC to Induce Cytokine TNF-alpha: ≤0.01 µM

## CCCCCCCCOc1ccc(C[C@@H](COCC)n2cnc3c(N)nc4ccccc4c32)cc1 [Example 2, 1-[(1S)-1-(ethoxymethyl)-2-(4-octoxyphenyl)ethyl]imidazo[4,5-c]quinolin-4-amine]
  MEC to Induce Cytokine IFN-alpha: 0.12 µM
  MEC to Induce Cytokine IFN-gamma: 0.37 µM
  MEC to Induce Cytokine TNF-alpha: 0.37 µM

## CCOC[C@H](Cc1ccc(OCc2ccccc2)cc1)n1cnc2c(N)nc3ccccc3c21 [Example 6, 1-[(1S)-1-[(4-benzyloxyphenyl)methyl]-2-ethoxy-ethyl]imidazo[4,5-c]quinolin-4-amine]
  MEC to Induce Cytokine IFN-alpha: ≤0.01 µM
  MEC to Induce Cytokine IFN-gamma: ≤0.01 µM
  MEC to Induce Cytokine TNF-alpha: ≤0.01 µM

## CCCCCCCCCCCCOc1ccc(C[C@@H](COCC)n2cnc3c(N)nc4ccccc4c32)cc1 [Example 1, 1-[(1 S)-1-[(4-dodecoxyphenyl)methyl]-2-ethoxy-ethyl]imidazo[4,5-c]quinolin-4-amine]
  MEC to Induce Cytokine IFN-alpha: 3.3 µM
  MEC to Induce Cytokine IFN-gamma: 10 µM
  MEC to Induce Cytokine TNF-alpha: 3.3 µM
